pIC50: −log10 of the molar value. Like-named read-outs stand apart in the source and are kept apart here. *1 amine or outer side, *2 acyl side, *3 side chain or, on linkers, in order; H or OH if unused. Where a SMILES comes first, the peptide text is derived from it. Bridges are numbered along the chain shown (N, C = ends). [ ]: non-standard residue; d: D form. The star is where a group is joined. NMePhe(4-CH2NHiPr) = CN[C@@H](Cc1ccc(CNC(C)C)cc1)C(=O)O; Tyr(Nα-carbamoyl) = NC(=O)N[C@@H](Cc1ccc(O)cc1)C(=O)*; Phe(4-CH2NHiPr) = CC(C)NCc1ccc(C[C@H](N)C(=O)O)cc1; Tyr(3-I) = N[C@@H](Cc1ccc(O)c(I)c1)C(=O)O; X1 = NC(=O)N[C@@H](CS[*:2])C(=O)[*:1]; d2Nal = N[C@H](Cc1ccc2ccccc2c1)C(=O)O
Assays:
Format in all cases: binding
human SSTR5 = target: T1, human SSTR5 (Homo sapiens, UniProt P35346); assay: Displacement of 125I-[Leu8,D-Trp22,Tyr25]-SRIF-28 from cloned SSTR5 (receptor autoradiography); conditions: for IC50: read-out: IC50 (nM) mSSTR5
T1 construct: expressed in transfected cells; host or cells: CHO-K1 cells and CCL39 cells
Experimental: (§1) Generally, recombinant cells expressing the receptor are washed and homogenized to prepare a crude protein homogenate that is frozen, embedded and then cut in 10–20 μm thin sections, as known in this art. Candidate substances, such as potential SRIF agonists and antagonists, are incubated with the tissue sections, and the interaction between the candidate substance and the receptor polypeptide is monitored.
(§2) Receptor binding assays are performed on cloned SRIF receptors as generally set forth in Reubi, J. C. et al., J. Clin. Endocrinol. […] Med. 2000, 27, 273–282.
(§3) In vitro Bioassay: The various somatostatin analogs are tested in vitro for their ability to bind to isolated cloned receptors expressed on CHO-K1 cells and CCL39 cells. CHO-K1 cells are grown in Ham's F-12 medium, and CCL39 cells are grown in Dulbecco's modified Eagle's medium/Ham's F-12(1:1) mix, supplemented with 10% fetal bovine serum, 100 U/ml penicillin and 100 μg/ml streptomycin, in humidified air containing 5% CO2 at 37° C.
(§4) Cells are washed and prepared to produce homogenates as described in detail in Reubi, J. C. et al, Eur. J. Nucl. Med. 2000, 27, 273–282.
(§5) Receptor autoradiography is performed on 20 μm thick cryostat sections of the membrane pellets, mounted on microscope slides, and then stored at −20° C. […] […] […] IC50 values are calculated after quantification of the data using a computer-assisted image processing system as known in this art.

human SSTR4 = target: T2, human SSTR4 (Homo sapiens, UniProt P31391); assay: Displacement of 125I-[Leu8,D-Trp22,Tyr25]-SRIF-28 from cloned SSTR4 (receptor autoradiography); conditions: for IC50: read-out: IC50 (nM) mSSTR4
T2 construct: expressed in transfected cells; host or cells: CHO-K1 cells and CCL39 cells
Experimental: as §1, §2, §3, §4
(§6) Receptor autoradiography is performed on 20 μm thick cryostat sections of the membrane pellets, mounted on microscope slides, and then stored at −20° C. […] Increasing concentrations of the unlabeled peptide are used ranging from 0.1–1000 nM. […] IC50 values are calculated after quantification of the data using a computer-assisted image processing system as known in this art.

human SSTR3 = target: T3, human SSTR3 (Homo sapiens, UniProt P32745); assay: Displacement of 125I-[Leu8,D-Trp22,Tyr25]-SRIF-28 from cloned SSTR3 (receptor autoradiography); conditions: for IC50: read-out: IC50 (nM) mSSTR3
T3 construct: expressed in transfected cells; host or cells: CHO-K1 cells and CCL39 cells
Experimental: as §1, §2, §3, §4, §6

human SSTR2 = target: T4, human SSTR2 (Homo sapiens, UniProt P30874); assay: Displacement of 125I-[Leu8,D-Trp22,Tyr25]-SRIF-28 from cloned SSTR2 (receptor autoradiography); conditions: for IC50: read-out: IC50 (nM) mSSTR2
T4 construct: expressed in transfected cells; host or cells: CHO-K1 cells and CCL39 cells
Experimental: as §1, §2, §3, §4, §5

human SSTR1 = target: T5, human SSTR1 (Homo sapiens, UniProt P30872); assay: Displacement of 125I-[Leu8,D-Trp22,Tyr25]-SRIF-28 from cloned SSTR1 (receptor autoradiography); conditions: for IC50: inhibition of radioligand binding of 125I-[Leu8,D-Trp22,Tyr24]SRIF-28, cloned receptor, table, read-out: IC50 (nM) mSSTR1; for binding strength and selectivity for SSTR1, in words: Peptide No. 27 and 2A after iodination
T5 construct: expressed in transfected cells; host or cells: CHO-K1 cells and CCL39 cells
Experimental: as §1, §2, §3, §4, §6

[1] = inhibition of radioligand binding of 125I-[Leu8,D-Trp22,Tyr24]SRIF-28, cloned receptor, table
[2] = displacement of iodinated SRIF-28 radioligand, read-out: IC50 / binding affinity at human SSTR1

T2 sequence (P31391 whole entry): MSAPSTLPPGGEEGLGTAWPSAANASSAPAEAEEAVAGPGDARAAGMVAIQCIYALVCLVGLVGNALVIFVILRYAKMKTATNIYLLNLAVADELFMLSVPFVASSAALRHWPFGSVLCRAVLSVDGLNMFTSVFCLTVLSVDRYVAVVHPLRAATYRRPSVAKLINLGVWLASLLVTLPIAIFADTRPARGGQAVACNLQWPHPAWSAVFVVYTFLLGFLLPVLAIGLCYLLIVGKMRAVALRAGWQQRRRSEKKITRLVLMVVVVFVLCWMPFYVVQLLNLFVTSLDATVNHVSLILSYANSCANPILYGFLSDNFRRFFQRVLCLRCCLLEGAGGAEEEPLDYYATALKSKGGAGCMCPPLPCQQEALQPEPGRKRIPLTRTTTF
T1 sequence (P35346 whole entry): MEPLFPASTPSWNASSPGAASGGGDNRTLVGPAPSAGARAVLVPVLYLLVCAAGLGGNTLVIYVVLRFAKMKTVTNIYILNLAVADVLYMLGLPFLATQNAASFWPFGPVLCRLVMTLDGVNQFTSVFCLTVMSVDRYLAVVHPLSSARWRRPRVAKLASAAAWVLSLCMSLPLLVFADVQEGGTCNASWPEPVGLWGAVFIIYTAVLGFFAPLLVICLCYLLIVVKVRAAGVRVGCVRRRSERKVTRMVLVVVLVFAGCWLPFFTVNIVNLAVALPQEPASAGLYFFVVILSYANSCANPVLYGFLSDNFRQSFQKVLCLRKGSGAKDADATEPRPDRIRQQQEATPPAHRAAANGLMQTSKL
T5 sequence (P30872 whole entry): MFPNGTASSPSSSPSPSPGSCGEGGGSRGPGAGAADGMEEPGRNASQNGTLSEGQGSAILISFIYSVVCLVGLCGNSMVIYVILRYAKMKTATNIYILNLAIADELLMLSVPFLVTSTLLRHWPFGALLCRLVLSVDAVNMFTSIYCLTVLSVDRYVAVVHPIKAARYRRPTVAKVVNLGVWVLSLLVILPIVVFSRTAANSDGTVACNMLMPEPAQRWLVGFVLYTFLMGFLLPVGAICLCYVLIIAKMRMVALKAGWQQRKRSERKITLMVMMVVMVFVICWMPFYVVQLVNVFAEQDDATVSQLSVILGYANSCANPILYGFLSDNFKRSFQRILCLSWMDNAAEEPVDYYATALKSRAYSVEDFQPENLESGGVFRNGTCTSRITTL
T4 sequence (P30874 whole entry): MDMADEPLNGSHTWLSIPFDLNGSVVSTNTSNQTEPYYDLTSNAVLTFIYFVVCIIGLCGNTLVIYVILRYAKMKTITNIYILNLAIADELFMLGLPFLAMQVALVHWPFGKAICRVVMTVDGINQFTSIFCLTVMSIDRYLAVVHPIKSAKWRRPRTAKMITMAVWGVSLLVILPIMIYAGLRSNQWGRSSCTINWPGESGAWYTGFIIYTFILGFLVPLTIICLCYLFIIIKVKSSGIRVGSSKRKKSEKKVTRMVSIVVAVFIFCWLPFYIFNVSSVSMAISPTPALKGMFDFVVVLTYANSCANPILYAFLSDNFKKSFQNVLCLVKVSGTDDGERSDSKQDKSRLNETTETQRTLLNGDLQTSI
T3 sequence (P32745 whole entry): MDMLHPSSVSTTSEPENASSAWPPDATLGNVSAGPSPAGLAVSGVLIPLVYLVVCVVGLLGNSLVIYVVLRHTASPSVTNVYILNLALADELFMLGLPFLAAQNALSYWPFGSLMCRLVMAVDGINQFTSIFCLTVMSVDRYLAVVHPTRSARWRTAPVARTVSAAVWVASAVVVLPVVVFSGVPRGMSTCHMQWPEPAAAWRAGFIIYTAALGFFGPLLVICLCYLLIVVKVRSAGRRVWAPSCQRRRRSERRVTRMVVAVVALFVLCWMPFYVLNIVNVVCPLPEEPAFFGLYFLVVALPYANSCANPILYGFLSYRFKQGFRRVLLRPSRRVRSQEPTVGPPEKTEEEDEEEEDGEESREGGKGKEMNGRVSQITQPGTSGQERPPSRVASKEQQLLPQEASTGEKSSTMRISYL

Compound	IC50 (human SSTR5) [nM]	IC50 (human SSTR3) [nM]	IC50 (human SSTR2) [nM]	IC50 (human SSTR1) [nM]	IC50 (human SSTR4; [1]) [nM]	binding strength and selectivity for SSTR1, in words (human SSTR1)	other results
CC(C)NCc1ccc(C[C@H]2C(=O)N[C@@H]([C@@H](C)O)C(=O)N[C@@H](Cc3ccc(O)cc3)C(=O)N[C@@H]([C@@H](C)O)C(=O)N[C@@H](CO)C(=O)N[C@H](C(=O)O)CSSC[C@H](N)C(=O)N[C@@H](CCCCN)C(=O)N[C@@H](Cc3ccccc3)C(=O)N[C@@H](Cc3ccccc3)C(=O)N[C@H](Cc3ccc4ccccc4c3)C(=O)N2C)cc1 [Peptide No. 9A, (cyclo)H-Cys-Lys-Phe-Phe-D-2Nal-N^αMeIAmp-Thr-Tyr-Thr-Ser-Cys-OH] (H-CKFF[d2Nal][NMePhe(4-CH2NHiPr)]TYTSC-OH; disulfide 1-11)				24.5	> 1000		IC50 (human SSTR5; [1]): > 10000 nM; pIC50 (human SSTR5; read-out: concentration below which no binding to SSTR5): < 5.00; pIC50 (human SSTR4; read-out: concentration below which no binding to SSTR4): < 5.00; IC50 (human SSTR3; [1]): > 1000 nM; pIC50 (human SSTR3; read-out: concentration below which no binding to SSTR3): < 6.00; IC50 (human SSTR2; [1]): > 10000 nM; pIC50 (human SSTR2; read-out: concentration below which no binding to SSTR2): < 5.00; pIC50 (human SSTR1; [2]): ~7.68
CC(C)NCc1ccc(C[C@@H]2NC(=O)[C@@H](Cc3c[nH]c4ccccc34)NC(=O)[C@H](Cc3ccccc3)NC(=O)[C@H](Cc3ccccc3)NC(=O)[C@H](CCCCN)NC(=O)[C@@H](N)CSSC[C@@H](C(=O)O)NC(=O)[C@H](CO)NC(=O)[C@H]([C@@H](C)O)NC(=O)[C@H](Cc3ccc(O)cc3)NC(=O)[C@H]([C@@H](C)O)NC2=O)cc1 [2A, (cyclo)H-Cys-Lys-Phe-Phe-D-Trp-IAmp-Thr-Tyr-Thr-Ser-Cys-OH] (H-CKFF[dW][Phe(4-CH2NHiPr)]TYTSC-OH; disulfide 1-11)			> 10000		> 10000	continues to bind strongly	effect on binding of the SRIF-28 radioligand to human SSTR3 (human SSTR3; at concentrations of 100 nM): even less effect
CC(C)NCc1ccc(C[C@@H]2NC(=O)[C@@H](Cc3c[nH]c4ccccc34)NC(=O)[C@H](Cc3ccccc3)NC(=O)[C@H](Cc3ccccc3)NC(=O)[C@H](CCCCN)NC(=O)[C@@H](NC(N)=O)CSSC[C@@H](C(=O)O)NC(=O)[C@H](CO)NC(=O)[C@H]([C@@H](C)O)NC(=O)[C@H](Cc3ccc(O)cc3)NC(=O)[C@H]([C@@H](C)O)NC2=O)cc1 [Peptide No. 12A, (cyclo)CbmCys-Lys-Phe-Phe-D-Trp-IAmp-Thr-Tyr-Thr-Ser-Cys-OH] (KFF[dW][Phe(4-CH2NHiPr)]TYTSC-OH; linker N-10 via X1)	> 1000	> 1000	> 10000				IC50 (human SSTR4): > 1000 nM; pIC50 (human SSTR1; [2]): 8.09
CC(C)NCc1ccc(C[C@H]2C(=O)N[C@@H]([C@@H](C)O)C(=O)N[C@@H](Cc3ccc(O)cc3)C(=O)N[C@@H]([C@@H](C)O)C(=O)N[C@@H](CO)C(=O)N[C@H](C(=O)O)CSSC[C@H](NC(N)=O)C(=O)N[C@@H](CCCCN)C(=O)N[C@@H](Cc3ccccc3)C(=O)N[C@@H](Cc3ccccc3)C(=O)N[C@H](Cc3c[nH]c4ccccc34)C(=O)N2C)cc1 [Peptide No. 12, (cyclo)CbmCys-Lys-Phe-Phe-D-Trp-N^αMeIAmp-Thr-Tyr-Thr-Ser-Cys-OH] (KFF[dW][NMePhe(4-CH2NHiPr)]TYTSC-OH; linker N-10 via X1)	> 10000	> 1000	> 10000	43		good selectivity with good binding strength	IC50 (human SSTR4): > 1000 nM
(cyclo)Biucys-Lys-Phe-Phe-D-Trp-N^αMeIAmp-Thr-Tyr-Thr-Ser-Cys-OH [Peptide No. 18]						bind strongly and selectively	
(cyclo) (DPTA)Cys-Lys-Phe-Phe-D-Trp-N^αMeIAmp-Thr-Tyr-Thr-Ser-Cys-OH [Peptide No. 26]						continue to bind strongly and selectively	
(cyclo) (DOTA)Cys-Lys-Phe-Phe-D-Trp-N^αMeIAmp-Thr-Tyr-Thr-Ser-Cys-OH [Peptide No. 25]						continue to bind strongly and selectively	
CC(C)NCc1ccc(C[C@@H]2NC(=O)[C@@H](Cc3c[nH]c4ccccc34)NC(=O)[C@H](Cc3ccccc3)NC(=O)[C@H](Cc3ccccc3)NC(=O)[C@H](CCCCN)NC(=O)[C@@H](N)CSSC[C@@H](C(=O)O)NC(=O)[C@H](CO)NC(=O)[C@H]([C@@H](C)O)NC(=O)[C@H](Cc3ccc(O)c(I)c3)NC(=O)[C@H]([C@@H](C)O)NC2=O)cc1 [Peptide No. 2B] (H-CKFF[dW][Phe(4-CH2NHiPr)]T[Tyr(3-I)]TSC-OH; disulfide 1-11)			> 10000				
CC(C)NCc1ccc(C[C@@H]2NC(=O)[C@@H](Cc3c[nH]c4ccccc34)NC(=O)[C@H](Cc3ccccc3)NC(=O)[C@H](Cc3ccccc3)NC(=O)[C@H](CCCCN)NC(=O)[C@@H](NC(N)=O)CSSC[C@@H](C(=O)O)NC(=O)[C@H](CO)NC(=O)[C@H]([C@@H](C)O)NC(=O)[C@H](Cc3ccc(O)c(I)c3)NC(=O)[C@H]([C@@H](C)O)NC2=O)cc1 [Peptide No. 12B] (KFF[dW][Phe(4-CH2NHiPr)]T[Tyr(3-I)]TSC-OH; linker N-10 via X1)			> 10000				
(cyclo 3-14)MeCbm-Cys-Lys-Phe-Phe-D-Trp-N^αMeIAmp-Thr-Tyr-Thr-Ser-Cys-OH [Peptide No. 17]						bind strongly and selectively	

More lines, main results first:

IC50 (human SSTR5) [nM]	IC50 (human SSTR3) [nM]	IC50 (human SSTR2) [nM]	IC50 (human SSTR1) [nM]	IC50 (human SSTR4; [1]) [nM]	Compound	binding strength and selectivity for SSTR1, in words (human SSTR1)	other results
> 1000	> 1000	> 1000	8.5		CC(C)NCc1ccc(C[C@H]2C(=O)N[C@@H]([C@@H](C)O)C(=O)N[C@@H](Cc3ccc(O)c(I)c3)C(=O)N[C@@H]([C@@H](C)O)C(=O)N[C@@H](CO)C(=O)N[C@H](C(=O)O)CSSC[C@H](NC(N)=O)C(=O)N[C@@H](CCCCN)C(=O)N[C@@H](Cc3ccccc3)C(=O)N[C@@H](Cc3ccccc3)C(=O)N[C@H](Cc3c[nH]c4ccccc34)C(=O)N2C)cc1 [Peptide No. 12D, (cyclo)CbmCys-Lys-Phe-Phe-D-Trp-N^αMeIAmp-Thr-ITyr-Thr-Ser-Cys-OH] (KFF[dW][NMePhe(4-CH2NHiPr)]T[Tyr(3-I)]TSC-OH; linker N-10 via X1)		IC50 (human SSTR4): 700 nM
> 1000	500	> 10000		> 1000	CC(C)NCc1ccc(C[C@@H]2NC(=O)[C@@H](Cc3c[nH]c4ccccc34)NC(=O)[C@H](Cc3ccccc3)NC(=O)[C@H](Cc3ccccc3)NC(=O)[C@H](CCCCN)NC(=O)[C@@H](NC(=O)[C@H](Cc3ccc(O)cc3)NC(N)=O)CSSC[C@@H](C(=O)O)NC(=O)[C@H](CO)NC(=O)[C@H]([C@@H](C)O)NC(=O)[C@H](Cc3ccccc3)NC(=O)[C@H]([C@@H](C)O)NC2=O)cc1 [Peptide No. 14A, (cyclo)CbmTyr-Cys-Lys-Phe-Phe-D-Trp-IAmp-Thr-Phe-Thr-Ser-Cys-OH] ({Tyr(Nα-carbamoyl)}-CKFF[dW][Phe(4-CH2NHiPr)]TFTSC-OH; disulfide 1-11)		pIC50 (human SSTR1; unit inferred, read-out: IC50 / binding affinity at SSTR1, unit inferred): 7.82
	> 1000	> 10000	25	300	CC(C)NCc1ccc(C[C@H]2C(=O)N[C@@H]([C@@H](C)O)C(=O)N[C@@H](Cc3ccccc3)C(=O)N[C@@H]([C@@H](C)O)C(=O)N[C@@H](CO)C(=O)N[C@H](C(=O)O)CSSC[C@H](NC(=O)[C@@H](N)Cc3ccc(O)cc3)C(=O)N[C@@H](CCCCN)C(=O)N[C@@H](Cc3ccccc3)C(=O)N[C@@H](Cc3ccccc3)C(=O)N[C@H](Cc3c[nH]c4ccccc34)C(=O)N2C)cc1 [Peptide No. 27, (cyclo)H-Tyr-Cys-Lys-Phe-Phe-D-Trp-N^αMeIAmp-Thr-Phe-Thr-Ser-Cys-OH] (H-YCKFF[dW][NMePhe(4-CH2NHiPr)]TFTSC-OH; disulfide 2-12)		binding to SSTR4, in words (human SSTR4; Peptide No. 27 iodinated): No specific binding; binding to SSTR3, in words (human SSTR3; Peptide No. 27 iodinated): No specific binding; binding to SSTR2, in words (human SSTR2; Peptide No. 27 iodinated): No specific binding

— patent publication US7019109B2, “SSTR1-selective analogs” (The Salk Institute for Bilogical Studies, priority 2001, dated 2006)
